Source: BindingDB's records for patent US20230295166 (Antengene Discovery, 2023)

Molecular target: Serine/threonine-protein kinase ATR (Homo sapiens, UniProt Q13535)
Assay: ATR Inhibition Assay
Procedure: Detection of ATR kinase activity utilized the Mobility shift assay to measure the phosphorylation of the substrate protein FAM-RAD17 (GL, Cat. No. 514318, Lot. No. P19042-MJ524315). The assay was developed and conducted at Chempartner. All the test compounds were dissolved in 100% DMSO at concentration of 20 mM, then prepare compounds and conducted the assay as follows: 1) Transfer […] 20 mM compound to 40 μl of 100% DMSO in a 96-well plate.2) Serially dilute the compound by transferring 20 μl to 60 μl of 100% DMSO in the next well and so forth for a total of 10 concentrations.3) Add 100 μl of 100% DMSO to two empty wells for no compound control and no enzyme control in the same 96-well plate. Mark the plate as source plate.4) Transfer 40 μl of compound from source plate to a new 384-well plate as the intermediate plate.5) Transfer 60 nl compounds to assay plate by Echo.6) Add ATR kinase (Eurofins, Cat. No. 14-953, Lot. No. D14 JP007N) into Kinase base buffer (50 mM HEPES, pH 7.5; 0.0015% Brij-35; 0.01% Triton) to prepare 2 enzyme solution, then add 10 μl of 2 enzyme solution to each well of the 384-well assay plate, incubate at room temperature for 10 min.7) Add FAM-RAD17 and ATP (Sigma, Cat. No. A7699-1G, CAS No. 987-65-5) in the kinase base buffer to prepare 2 peptide solution, then add 10 μl to the assay plate.8) Incubate at 28 C. for specified period of time. […]

Serine/threonine-protein kinase ATR, sequence (Q13535 whole entry): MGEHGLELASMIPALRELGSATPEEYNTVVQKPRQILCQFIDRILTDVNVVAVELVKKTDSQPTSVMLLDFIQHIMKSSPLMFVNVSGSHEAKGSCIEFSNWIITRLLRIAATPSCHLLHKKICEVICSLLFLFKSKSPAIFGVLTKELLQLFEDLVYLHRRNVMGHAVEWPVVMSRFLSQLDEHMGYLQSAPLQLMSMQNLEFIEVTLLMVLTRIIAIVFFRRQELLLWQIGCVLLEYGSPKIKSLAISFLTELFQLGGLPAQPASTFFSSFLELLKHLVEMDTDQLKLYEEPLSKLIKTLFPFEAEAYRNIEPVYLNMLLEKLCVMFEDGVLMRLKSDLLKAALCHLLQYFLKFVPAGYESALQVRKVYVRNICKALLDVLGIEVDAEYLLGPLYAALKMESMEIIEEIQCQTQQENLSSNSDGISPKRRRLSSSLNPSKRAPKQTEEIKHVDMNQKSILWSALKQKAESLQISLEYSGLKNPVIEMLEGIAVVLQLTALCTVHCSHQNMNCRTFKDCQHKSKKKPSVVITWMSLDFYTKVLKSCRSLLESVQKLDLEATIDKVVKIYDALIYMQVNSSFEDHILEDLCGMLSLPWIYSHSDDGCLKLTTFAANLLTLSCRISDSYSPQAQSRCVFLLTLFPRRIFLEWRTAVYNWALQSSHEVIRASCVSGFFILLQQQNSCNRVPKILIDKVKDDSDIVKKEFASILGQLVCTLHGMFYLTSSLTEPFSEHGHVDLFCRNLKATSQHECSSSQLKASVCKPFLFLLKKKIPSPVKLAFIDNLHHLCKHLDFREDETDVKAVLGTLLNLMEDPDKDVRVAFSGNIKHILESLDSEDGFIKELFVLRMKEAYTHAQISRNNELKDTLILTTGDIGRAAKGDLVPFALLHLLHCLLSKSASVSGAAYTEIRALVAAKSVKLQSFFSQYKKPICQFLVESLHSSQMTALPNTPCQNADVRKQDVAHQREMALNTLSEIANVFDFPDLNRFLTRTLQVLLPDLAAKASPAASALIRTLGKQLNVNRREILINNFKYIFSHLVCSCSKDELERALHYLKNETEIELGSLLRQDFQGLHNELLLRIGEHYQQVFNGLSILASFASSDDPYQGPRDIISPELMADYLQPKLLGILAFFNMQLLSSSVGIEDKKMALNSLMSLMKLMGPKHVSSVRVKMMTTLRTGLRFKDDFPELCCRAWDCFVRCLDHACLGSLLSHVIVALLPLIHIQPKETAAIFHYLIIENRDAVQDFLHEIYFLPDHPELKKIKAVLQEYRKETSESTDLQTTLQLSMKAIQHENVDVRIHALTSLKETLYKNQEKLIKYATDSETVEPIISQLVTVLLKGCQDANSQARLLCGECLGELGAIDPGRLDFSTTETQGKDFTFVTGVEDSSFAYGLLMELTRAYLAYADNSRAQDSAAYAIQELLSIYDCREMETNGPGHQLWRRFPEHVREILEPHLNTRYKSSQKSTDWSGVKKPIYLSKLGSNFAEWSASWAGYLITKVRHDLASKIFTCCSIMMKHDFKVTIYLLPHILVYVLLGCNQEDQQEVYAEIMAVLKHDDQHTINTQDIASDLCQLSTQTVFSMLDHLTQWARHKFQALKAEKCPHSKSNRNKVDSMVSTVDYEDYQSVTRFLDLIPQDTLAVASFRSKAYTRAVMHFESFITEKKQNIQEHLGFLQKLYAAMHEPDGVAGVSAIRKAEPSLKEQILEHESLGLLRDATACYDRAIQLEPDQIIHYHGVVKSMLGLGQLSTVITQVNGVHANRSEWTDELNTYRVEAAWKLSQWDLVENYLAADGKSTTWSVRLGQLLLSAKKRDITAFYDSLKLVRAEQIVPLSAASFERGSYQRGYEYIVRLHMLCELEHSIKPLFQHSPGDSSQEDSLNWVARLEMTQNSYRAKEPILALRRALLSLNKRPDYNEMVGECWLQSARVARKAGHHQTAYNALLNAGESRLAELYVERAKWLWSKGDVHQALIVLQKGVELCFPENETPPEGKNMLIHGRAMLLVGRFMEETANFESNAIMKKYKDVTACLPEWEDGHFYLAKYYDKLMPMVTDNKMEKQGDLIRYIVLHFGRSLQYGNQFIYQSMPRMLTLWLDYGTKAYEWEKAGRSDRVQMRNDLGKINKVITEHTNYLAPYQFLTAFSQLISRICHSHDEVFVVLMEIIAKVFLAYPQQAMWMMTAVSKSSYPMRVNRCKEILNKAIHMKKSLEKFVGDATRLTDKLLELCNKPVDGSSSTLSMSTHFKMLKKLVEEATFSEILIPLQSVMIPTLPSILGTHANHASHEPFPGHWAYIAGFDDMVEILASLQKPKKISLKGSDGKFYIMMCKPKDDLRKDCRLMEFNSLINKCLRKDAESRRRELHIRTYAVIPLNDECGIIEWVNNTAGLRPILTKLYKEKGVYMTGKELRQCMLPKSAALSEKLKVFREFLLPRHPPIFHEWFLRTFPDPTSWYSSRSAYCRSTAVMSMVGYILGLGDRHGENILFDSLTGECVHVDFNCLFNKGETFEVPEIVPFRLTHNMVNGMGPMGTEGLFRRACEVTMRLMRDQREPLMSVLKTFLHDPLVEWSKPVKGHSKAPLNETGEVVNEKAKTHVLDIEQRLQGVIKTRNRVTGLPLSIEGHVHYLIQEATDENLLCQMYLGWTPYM

Row | Compound | IC50 [nM]
1 | Cc1cc(-c2nsc3c(N4CCCCS4(=O)=O)cc(N4CCOC[C@H]4C)nc23)[nH]n1 [US20230295166, Compound 82] | < 100
2 | C[C@@H]1COCCN1c1cc(-c2ccnn2C)c2c(Cl)nc(-c3ccn[nH]3)n2n1 [US20230295166, Compound 61] | < 100
